According to patent US12521398B2, “Composition for treating synucleinopathies” (STANDIGM INC., priority 2019, dated 2026):
Where two headings read alike, the source gives them in different places. One block for each compound: values may come before it.

How the values were obtained:
Assay type in all cases: cell-based
[1] = tested on: SH-SY5Y cell line; assay: Cytotoxicity, cell viability by MTT test; conditions: 24 hours
Protocol: An SH-SY5Y cell line (ATCC) was used to confirm the cytotoxicity of efavirenz.
The SH-SY5Y cell line was seeded in a 96-well plate, cultured, treated with an increasing concentration (0, 5, 25 μM) of efavirenz, and then incubated at a constant temperature for 24 hours. Thereafter, cell viability was measured using an MTT test method. Cells treated with 0 μM efavirenz were used as the control. **P<0.01 against the control.
Also, in the next experiment, the cytotoxicities of chlorhexidine (N,N″″-1,6-hexanediylbis[N′-(4-chlorophenyl)(imidocarbon imidic diamide)]), naphazoline(2-(1-naphthylmethyl)-4,5-dihydro-1H-imidazole), and tenofovir (({[(2R)-1-(6-amino-9H-purin-9-yl)-[…]]oxy}methyl)phosphonic acid) to be used as reference drugs were tested in the same manner as in the cytotoxicity experiment of efavirenz. Cells were treated with chlorhexidine at a concentration of 0, 10, 100 μM, treated with naphazoline at a concentration of 0, 100, 200 μM, and treated with tenofovir at a concentration of 0, 20, 30 μM, and cells treated with each control drug at a concentration of 0 μM was used as the control. *P<0.05, ***P<0.001 against the control.

[2] = molecular target: T1, α-synuclein (Homo sapiens, UniProt P37840); assay: Dual chamber assay, cell-to-cell transmission of α-synuclein in SH-SY5Y cells; conditions: 12 hours
T1 construct: expressed in transfected cells; host or cells: SH-SY5Y
Protocol: A slide glass was included in the plate to stain the cells after the cell culture.
In an insert well of the 12-well plate as the apical chamber, an SH-SY5Y cell line in which α-synuclein was over-expressed was seeded at a density of 4×10^4 cells/well, and in the 12-well plate as the basal chamber, an SH-SY5Y cell line in which α-synuclein was not over-expressed was seeded at a density of 4×10^4 cells/well and they were incubated at a constant temperature. The next day, the insert well was transferred to a place where the 12-well plate was placed to form a dual chamber. Thereafter, the chamber was treated with DMSO or 5 μM efavirenz and incubated at a constant temperature for 12 hours. The SH-SY5Y cells in the plate in which the chamber was treated with DMSO were used as the control. Then, the SH-SY5Y cells in the plate were subjected to immunostaining and observed using a confocal microscope. During the immunostaining, α-synuclein was stained red, and the nuclei were stained blue. Also, fluorescence intensities of α-synuclein in the control and the cells treated with efavirenz were compared. A scale bar represents 20 μm. **P<0.01, ***P<0.001 against the control. […] Also, when the fluorescence intensities of the immunostained α-synuclein were compared, the fluorescence intensity in the cells treated with efavirenz decreased by approximately 80%, compared with that of the control (FIG. 2A).
In the case of the naphazoline-administered group, the cells treated with PBS were used as the control, and the cells treated with DMSO were used as the control in the case of the chlorhexidine- and tenofovir-administered groups. A scale bar represents 20 μm. **P<0.01 and ***P<0.001 against the control.

[3] = molecular target: T2, A53T α-synuclein (Homo sapiens, UniProt P37840, A53T); assay: Co-culture assay of A53T EGFP and A53T mcherry SH-SY5Y cells, aggregation of α-synuclein
T2 construct: expressed in transfected cells; host or cells: SH-SY5Y (lentiviral transduction)
Protocol: A degeneration process of converting monomeric α-synuclein into aggregates may mainly cause Parkinson's disease. Therefore, it was tested whether efavirenz is involved in the propagation process of the over-expressed monomeric A53T α-synuclein to adjacent cells, which is converting the over-expressed monomeric α-synuclein into aggregates.
For this purpose, an SH-SY5Y cell line (A53T EGFP cells) in which EGFP-labeled A53T α-synuclein was over-expressed and an SH-SY5Y cell line (A53T mcherry cells) in which mcherry-labeled A53T α-synuclein was over-expressed were prepared using a lentivirus. Thereafter, the A53T EGFP cells and the A53T mcherry cells were mixed to prepare co-cultured cells. Then, the co-cultured cells were treated with DMSO or 5 μM efavirenz, and co-cultured in the presence of 50 μM retinoic acid (RA) for 5 days. The co-cultured cells treated with DMSO were used as the control. At 5 days of the co-culturing, the aggregated α-synuclein (inclusion body-positive cells) was confirmed using a confocal microscope (the rightmost image of fluorescence images shown in FIG. 3A). Also, each of a combined distribution of EGFP and mcherry in the A53T EGFP cells and a combined distribution of mcherry and EGFP in the A53T mcherry cells was confirmed. […] In the rightmost image of the fluorescence images of FIG. 3A, dots indicated in yellow represent the combining of mcherry and EGFP signals in the cells. In the rightmost image of the fluorescence images of FIG. 3A (a diagram in which EGFP+mcherry signals were combined), the dots indicated in yellow were counted to calculate ratios of the dots to the whole cells, and then plotted on a bar graph. A scale bar represents 20 μm, and ***P<0.001 against the control.
Also, to test whether chlorhexidine, naphazoline, and tenofovir were involved in the process of moving the over-expressed monomeric A53T α-synuclein to adjacent cells to convert the over-expressed monomeric α-synuclein into aggregates, the cells were treated with either 10 μM chlorhexidine, 100 μM naphazoline, or 20 μM tenofovir, and then tested in the same manner as in the experiment for efavirenz. However, in the case of the naphazoline-administered group, the cells treated with PBS were used as the control, and the cells treated with DMSO were also used as the control in the case of the chlorhexidine- and tenofovir-administered groups. A scale bar represents 20 μm.

[4] = 20 μM, 5 days co-culture, DMSO control
[5] = 10 μM, 5 days co-culture, DMSO control

Structure (SMILES): C[C@H](Cn1cnc2c(N)ncnc21)OCP(=O)(O)O [tenofovir]
cell viability compared with the control ([1]; 20 μM): not changed significantly | cell viability compared with the control ([1]; 30 μM): significant decrease | cell-to-cell transmission of α-synuclein compared with the control (fluorescence image) ([2]; 20 μM, DMSO control): remarkably increased | amount of aggregated α-synuclein compared with the control cells [3, 4]: increased or were not significantly different | distribution of α-synuclein compared with the control cells [3, 4]: increased or were not significantly different

decrease of fluorescence intensity of immunostained α-synuclein compared with the control ([2]; 5 μM, DMSO control): approximately 80%
Structure (SMILES): O=C1Nc2ccc(Cl)cc2[C@@](C#CC2CC2)(C(F)(F)F)O1 [efavirenz, (4S)-6-chloro-(cyclopropylethynyl)-1,4-dihydro-4-(trifluoromethyl)-2H-3,1-benzoxazin-2-one]

cell-to-cell transmission of α-synuclein compared with the control (fluorescence image) ([2]; 100 μM, PBS control): remarkably increased
Structure (SMILES): c1ccc2c(CC3=NCCN3)cccc2c1 [naphazoline, 2-(1-naphthylmethyl)-4,5-dihydro-1H-imidazole]
distribution of α-synuclein compared with the control cells [3]: increased or were not significantly different | amount of aggregated α-synuclein compared with the control cells ([3]; 100 μM, 5 days co-culture, PBS control): increased or were not significantly different

cell-to-cell transmission of α-synuclein compared with the control (fluorescence image) ([2]; 10 μM, DMSO control): remarkably increased
Structure (SMILES): [H]/N=C(\N/C(=N/[H])NCCCCCCNC(=N)NC(=N)Nc1ccc(Cl)cc1)Nc1ccc(Cl)cc1 [chlorhexidine, N,N″″-1,6-hexanediylbis[N′-(4-chlorophenyl)(imidocarbonimidic diamide)]]
amount of aggregated α-synuclein compared with the control cells [3, 5]: increased or were not significantly different | distribution of α-synuclein compared with the control cells [3, 5]: increased or were not significantly different
